Patent US20100233681A1, “METHOD FOR CELL BASED ASSAYS” (GE Healthcare UK Limited, priority 2006, published 2010)

Test system: U2OS osteosarcoma cells
Details: 250 ml of a 40 mM solution of histamine added after 20 seconds; control cells steady state 4500000 fluorescence units; 37° C.; FluoroMax-3 spectrofluorimeter
Method: i) U2OS osteosarcoma cells were grown on collagen coated CYTODEX™ 3 microcarriers (GE Healthcare) according to the Manufacturer's instructions in DMEM media (Invitrogen) supplemented with 10% (v/v) fetal bovine serum (Sigma). Once the culture had attained the required volume and cell density the cells on beads were loaded with 1 μM Fluo-4 (Invitrogen). Microcarriers were allowed to settle, the growth media removed and replaced with calcium flux buffer (145 mM sodium chloride, 5 mM potassium chloride, 1 mM magnesium sulphate, 10 mM HEPES, 10 mM D-glucose, 1 mM calcium chloride containing 1% BSA, 1 μM Fluo-4 (Invitrogen) and the cells incubated for 40 minutes at 37° C. Beads were allowed to settle, the calcium flux buffer removed and replaced with DMEM media supplemented with 10% (v/v) fetal bovine serum and glycerol (10% v/v final concentration) was added as a cryo-preservative. Fluo-4 loaded cells on beads were divided into aliquots of 8×10^5 cells and the 1 ml aliquots frozen to −140° C. at a freezing rate of 1° C./minute. ii) To set up the cell assay, vials of cryo-preserved cells were rapidly thawed in a water bath at 37° C. and cells on bead suspensions placed in 1.5 ml spectrofluorimeter cuvettes and equilibrated at 37° C. for 30 minutes. Fluorescence measurements were acquired over time using a FluoroMax-3 spectrofluorimeter using excitation and emission settings for Fluo-4.

## NCCc1c[nH]cn1 [histamine]
  Fluo-4 fluorescence after addition of histamine (intracellular calcium release): 5170000 fluorescence units
